Data on 24 molecules can be found in US7476687B2, “Substituted furo[2,3-g]indazoles for the treatment of glaucoma” (Alcon, Inc., priority 2003, dated 2009).

Counter-ions that a name gives are not always drawn.

For data set [1], the target named is T1, 5HT2A(rat) (Rattus norvegicus, UniProt P14842). Description: 5-HT2 Receptor Binding Assay ([125I]DOI competition, cerebral cortex homogenates). Particulars: inhibition of [125I]DOI binding. Details: Aliquots of post mortem rat or human cerebral cortex homogenates (400 μL) dispersed in 50 mM TrisHCl buffer; from tissue; host or cells: post mortem rat cerebral cortex homogenate. The protocol: 5-HT2 Receptor Binding Assay
T1 sequence (P14842 whole entry): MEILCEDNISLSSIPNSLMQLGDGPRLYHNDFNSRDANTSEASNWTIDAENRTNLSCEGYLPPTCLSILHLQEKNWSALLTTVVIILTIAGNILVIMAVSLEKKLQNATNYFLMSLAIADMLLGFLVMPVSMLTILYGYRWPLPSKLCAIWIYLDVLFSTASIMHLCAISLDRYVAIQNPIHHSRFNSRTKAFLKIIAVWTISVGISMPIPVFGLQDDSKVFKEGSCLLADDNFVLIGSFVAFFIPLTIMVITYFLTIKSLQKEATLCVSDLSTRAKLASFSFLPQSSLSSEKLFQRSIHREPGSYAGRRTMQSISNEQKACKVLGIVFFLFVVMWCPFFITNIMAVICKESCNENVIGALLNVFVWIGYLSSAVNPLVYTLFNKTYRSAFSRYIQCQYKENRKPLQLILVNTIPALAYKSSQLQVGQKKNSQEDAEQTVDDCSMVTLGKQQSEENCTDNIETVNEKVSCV
Aliquots of post mortem rat or human cerebral cortex homogenates (400 μL) dispersed in 50 mM TrisHCl buffer (pH 7.4) are incubated with [^125I]DOI (80 pM final) in the absence or presence of methiothepin (10 μM final) to define total and non-specific binding, respectively, in a total volume of 0.5 mL. The assay mixture is incubated for 1 hour at 23° C. in polypropylene tubes and the assays terminated by rapid vacuum filtration over Whatman GF/B glass fiber filters previously soaked in 0.3% polyethyleneimine using ice-cold buffer. Test compounds (at different concentrations) are substituted for methiothepin. Filter-bound radioactivity is determined by scintillation spectrometry on a beta counter. The data are analyzed using a non-linear, iterative curve-fitting computer program [Trends Pharmacol. Sci., 16, 413 (1995)] to determine the compound affinity parameter. The concentration of the compound needed to inhibit the [^125I]DOI binding by 50% of the maximum is termed the IC50 or Ki value.

For data set [2], the target named is T1, 5HT2A(rat). Description: 5HT2 Functional Assay: [Ca2+]i Mobilization (FLIPR, A7r5 cells). In kind it is cell-based. The conditions noted are these: for EC50: [Ca2+]i mobilization, rat vascular smooth muscle cells A7r5; for Emax: percentage of maximum 5-HT-induced response, A7r5 cells. Details: endogenous in cells; host or cells: A7r5 rat vascular smooth muscle cells. The protocol: The receptor-mediated mobilization on intracellular calcium ([Ca^2+]i) was studied using the Fluorescence Imaging Plate Reader (FLIPR) instrument. Rat vascular smooth muscle cells, A7r5, were grown in a normal media of DMEM/10% FBS and 10 μg/mL gentamycin. Confluent cell monolayers were trypsinized, pelleted, and re-suspended in normal media. Cells were seeded in a 50 μL volume at a density of 20,000 cells/well in a black wall, 96-well tissue culture plate and grown for 2 days.
On the day of the experiment, one vial of FLIPR Calcium Assay Kit dye was re-suspended in 50 mL of a FLIPR buffer consisting of Hank's Balanced Salt Solution (HBSS), 20 mM HEPES, and 2.5 mM probenecid, pH 7.4. Cells were loaded with the calcium-sensitive dye by addition of an equal volume (50 μL) to each well of the 96-well plate and incubated with dye for 1 h at 23° C.
Compounds were diluted 1:50 in 20% DMSO/20% Ethanol. For “hit” screening, compounds were further diluted 1:10 in FLIPR buffer and tested at a final concentration of 10 μM.
The compound plate and cell plate were placed in the FLIPR instrument. At the beginning of an experimental run, a signal test was performed to check the basal fluorescence signal from the dye-loaded cells and the uniformity of the signal across the plate. The basal fluorescence was adjusted between 8000-12000 counts by modifying the exposure time, the camera F-stop, or the laser power. Instrument settings for a typical assay were the following: laser power 0.3-0.6 W, camera F-stop F/2, and exposure time 0.4 sec. An aliquot (25 μL) of the test compound was added to the existing 100 μL dye-loaded cells at a dispensing speed of 50 μL/sec. Fluorescence data were collected in real-time at 1.0 sec intervals for the first 60 secs and at 6.0 sec intervals for an additional 120 secs.

For the molecule `C[C@H](N)Cn1ncc2ccc3oc(C(N)=O)cc3c21` (as salt: fumarate) [Example 3, 1-((S)-2-Aminopropyl)-1H-furo[2,3-g]indazole-7-carboxylic acid amide], the melting point – broadly, the temperature, or range, at which the solid turns liquid – fell in the range of 170 to 172 °C.

The molecule `COCCNC(=O)c1cc2c(ccc3cnn(C[C@H](C)N)c32)o1` (as salt: fumarate) [Example 8, 1-((S)-2-Aminopropyl)-1H-furo[2,3-g]indazole-7-carboxylic acid (2-methoxyethyl)-amide] had a melting point of 75 to 76 °C.

`CC(O)CNC(=O)c1cc2c(ccc3cnn(C[C@H](C)N)c32)o1` (stereo partly drawn) (as salt: fumarate) [Example 9, 1-((S)-2-Aminopropyl)-1H-furo[2,3-g]indazole-7-carboxylic acid (2-hydroxypropyl)-amide]: the melting point fell in the range of 190 to 191 °C.

On to `C[C@H](N)Cn1ncc2ccc3oc(C(=O)NCC4(O)CC4)cc3c21` (as salt: fumarate) [Example 10, 1-((S)-2-Aminopropyl)-1H-furo[2,3-g]indazole-7-carboxylic acid (1-hydroxy-cyclopropylmethyl)-amide], for which the melting point is 77 to 79 °C.

In turn, `C[C@H](N)Cn1ncc2ccc3oc(C(=O)NCC(C)(C)CO)cc3c21` (as salt: fumarate) [Example 11, 1-((S)-2-Aminopropyl)-1H-furo[2,3-g]indazole-7-carboxylic acid (3-hydroxy-2,2-dimethyl-propyl)-amide] had a melting point of 103 °C.

`CC(=O)NCCCNC(=O)c1cc2c(ccc3cnn(C[C@H](C)N)c32)o1` (as salt: fumarate) [Example 12, 1-((S)-2-Amino-propyl)-1H-furo[2,3-g]indazole-7-carboxylic acid (3-acetylaminopropyl)-amide] gave a melting point of 81 °C.

For the molecule `C[C@H](N)Cn1ncc2ccc3oc(C(=O)NCCCN4CCCC4=O)cc3c21` (as salt: fumarate) [Example 13, 1-((S)-2-Aminopropyl)-1H-furo[2,3-g]indazole-7-carboxylic acid [3-(2-oxo-pyrrolidin-1-yl)-propyl]-amide], the melting point is 82 °C.

`Cc1ccc(CNC(=O)c2cc3c(ccc4cnn(C[C@H](C)N)c43)o2)o1` (as salt: fumarate) [Example 14, 1-((S)-2-Aminopropyl)-1H-furo[2,3-g]indazole-7-carboxylic acid (5-methyl-furan-2-ylmethyl)amide] had a melting point of 118 to 120 °C.

`Cc1noc(-c2cc3c(ccc4cnn(C[C@H](C)N)c43)o2)n1` (as salt: fumarate) [Example 15, (S)-1-Methyl-2-[7-(3-methyl-1,2,4-oxadiazol-5-yl)-furo[2,3-g]indazol-1-yl]-ethylamine]: the melting point fell in the range of 187 to 189 °C.

As to `CCOC(=O)c1cc2c(ccc3cnn(C[C@H](C)N)c32)o1.O=C(O)/C=C/C(=O)O` [Example 1, 1-((S)-2-Aminopropyl)-1H-furo[2,3-g]indazole-7-carboxylic acid ethyl ester fumarate], the melting point is 184 to 185 °C. Besides, the IC50 (commonly the concentration needed to halve the response being measured) on 5HT2A(rat) [1] is 0.00021 µM. Moreover, at 5HT2A(rat) [2], it took 0.063 µM to reach a half-maximal effect (EC50) and the Emax (usually the size of the effect at its maximum, as opposed to the concentration needed) turned out to be 101%.

The molecule `C[C@H](N)Cn1ncc2ccc3oc(CO)cc3c21` [Example 2, [1-((S)-2-Aminopropyl)-1H-furo[2,3-g]indazol-7-yl]-methanol] yielded a melting point of 110 to 112 °C. On 5HT2A(rat) [1], this molecule came in with a concentration for half-maximal inhibition (IC50) of 0.00053 µM. Also, on 5HT2A(rat) [2], a half-maximal effect (EC50) was put at 0.018 µM and the Emax was found to be 86%.

The molecule `C[C@H](N)Cn1ncc2ccc3oc(C(=O)NCCO)cc3c21` [Example 5, 1-((S)-2-Aminopropyl)-1H-furo[2,3-g]indazole-7-carboxylic acid (2-hydroxyethyl)-amide fumarate] came in with an IC50 on 5HT2A(rat) [1] of 0.0035 µM. In addition, at 5HT2A(rat) [2], the EC50 – broadly, the concentration giving half of the maximal effect – is 0.055 µM and the Emax came to 94%.

Turning to `C[C@H](N)Cn1ncc2ccc3oc(C(=O)NCCN4CCOCC4)cc3c21` [Example 7, 1-((S)-2-Aminopropyl)-1H-furo[2,3-g]indazole-7-carboxylic acid (2-morpholin-4-yl-ethyl)-amide], the IC50 on 5HT2A(rat) [1] was found to be 0.0013 µM. For the same molecule, at 5HT2A(rat) [2], a half-maximal response (EC50) required 0.109 µM and the Emax was found to be 89%.

Take `COCCNC(=O)c1cc2c(ccc3cnn(C[C@H](C)N)c32)o1` [Example 8, 1-((S)-2-Aminopropyl)-1H-furo[2,3-g]indazole-7-carboxylic acid (2-methoxyethyl)-amide]: on 5HT2A(rat) [1], the IC50 was 0.0023 µM. For the same molecule, at 5HT2A(rat) [2], the EC50 came to 0.054 µM and the Emax worked out at 94%.

Consider `CC(O)CNC(=O)c1cc2c(ccc3cnn(C[C@H](C)N)c32)o1` (stereo partly drawn) [Example 9, 1-((S)-2-Aminopropyl)-1H-furo[2,3-g]indazole-7-carboxylic acid (2-hydroxypropyl)-amide], for which the IC50 at 5HT2A(rat) [1] was 0.0015 µM. On 5HT2A(rat) [2], the EC50 worked out at 0.027 µM and the Emax came to 98%.

Regarding `C[C@H](N)Cn1ncc2ccc3oc(C(=O)NCC4(O)CC4)cc3c21` [Example 10, 1-((S)-2-Aminopropyl)-1H-furo[2,3-g]indazole-7-carboxylic acid (1-hydroxy-cyclopropylmethyl)-amide], on 5HT2A(rat) [1], the half-maximal inhibitory concentration (IC50) amounted to 0.0011 µM. Moreover, on 5HT2A(rat) [2], it took 0.015 µM to reach a half-maximal effect (EC50) and the Emax turned out to be 94%.

Molecule `CC(=O)NCCCNC(=O)c1cc2c(ccc3cnn(C[C@H](C)N)c32)o1` [Example 12, 1-((S)-2-Amino-propyl)-1H-furo[2,3-g]indazole-7-carboxylic acid (3-acetylaminopropyl)-amide] showed an IC50 at 5HT2A(rat) [1] of 0.0014 µM. Also, at 5HT2A(rat) [2], the concentration giving a half-maximal response (EC50) came to 0.037 µM and the Emax was found to be 95%.

`C[C@H](N)Cn1ncc2ccc3oc(C(=O)NCCCN4CCCC4=O)cc3c21` [Example 13, 1-((S)-2-Aminopropyl)-1H-furo[2,3-g]indazole-7-carboxylic acid [3-(2-oxo-pyrrolidin-1-yl)-propyl]-amide] registered an IC50 at 5HT2A(rat) [1] of 0.002 µM. On 5HT2A(rat) [2], this molecule yielded an EC50 of 0.072 µM and an Emax of 87%.

With `Cc1ccc(CNC(=O)c2cc3c(ccc4cnn(C[C@H](C)N)c43)o2)o1` [Example 14, 1-((S)-2-Aminopropyl)-1H-furo[2,3-g]indazole-7-carboxylic acid (5-methyl-furan-2-ylmethyl)amide], the IC50 at 5HT2A(rat) [1] was 0.0003 µM. On 5HT2A(rat) [2], this molecule had an EC50 of 0.181 µM and an Emax of 94%.

At 5HT2A(rat) [1], `Cc1noc(-c2cc3c(ccc4cnn(C[C@H](C)N)c43)o2)n1` [Example 15, (S)-1-Methyl-2-[7-(3-methyl-1,2,4-oxadiazol-5-yl)-furo[2,3-g]indazol-1-yl]-ethylamine] showed an IC50 of 0.0009 µM. On 5HT2A(rat) [2], this molecule displayed an EC50 of 0.283 µM and an Emax of 101%.

In turn, `CNC(=O)Cc1cc2c(ccc3cnn(C[C@H](C)N)c32)o1` [Example 16, 2-[1-((S)-2-Amino-propyl)-1H-furo[2,3-g]indazol-7-yl]-N-methyl-acetamide] gave a 50% inhibitory concentration (IC50) at 5HT2A(rat) [1] of 0.0007 µM. Moreover, on 5HT2A(rat) [2], a half-maximal response (EC50) required 0.028 µM and the Emax is 97%.

With `C[C@H](N)Cn1ncc2ccc3oc(CNC(=O)c4cccnc4)cc3c21` [Example 17], on 5HT2A(rat) [1], the IC50 stood at 0.003 µM. On 5HT2A(rat) [2], a half-maximal response (EC50) required 0.022 µM and the Emax worked out at 95%.

On to `CCNC(=O)NCc1cc2c(ccc3cnn(C[C@H](C)N)c32)o1` [Example 18, 1-[1-((S)-2-Aminopropyl)-1H-furo[2,3-g]indazol-7-ylmethyl]-3-ethylurea], for which, at 5HT2A(rat) [1], the IC50 came to 0.0041 µM. Further, at 5HT2A(rat) [2], the response was half-maximal at 0.023 µM (EC50) and the Emax turned out to be 87%.

On 5HT2A(rat) [2], `C[C@H](N)Cn1ncc2ccc3oc(CN4CCN(c5ccccn5)CC4)cc3c21` [Example 20, (S)-1-Methyl-2-[7-(4-pyridin-2-yl-piperazin-1-ylmethyl)-furo[2,3-g]indazol-1-yl]-ethylamine] showed an EC50 of 0.141 µM and an Emax of 81%.
